The record followed here is patent US8940742B2, “Heterocyclic compounds and uses thereof” (Infinity Pharmaceuticals, Inc., priority 2012, dated 2015).

Holding throughout (test): PI3-Kinase Promega ADP-Glo Max assay
Common to all, as to format: biochemical

One test addresses T1, PI3K α (Homo sapiens, UniProt P42336).
T1 construct: purchased Millipore
The settings on record: 20 nM kinase, 3 mM ATP, 500 uM diC8-PtdInsP. Here is the method:
(§1) Promega ADP-Glo Max assay kit (Cat. No. V7002) was utilized to determine IC50 values for α, β, δ and γ isoforms of human Class I PI3 kinases (Millipore). Samples of kinase (20 nM α or δ, 40 nM β or γ isoform) were incubated with compound for 15 minutes at room temperature in reaction buffer (15 mM HEPES pH 7.4, 20 mM NaCl, 1 mM EGTA, 0.02% Tween 20, 10 mM MgCl2, 0.2 mg/mL bovine-γ-globulins) followed by addition of ATP/diC8-PtdInsP mixture to give final concentrations of 3 mM ATP and 500 uM diC8-PtdInsP. Reactions were incubated at room temperature for 2 hours followed by addition of 25 uL of stop solution. After a 40-minute incubation at room temperature, 50 uL of Promega detection mix was added followed by incubation for 1 hour at room temperature. Plates were then read on Envision plate reader in luminescence mode. Data was converted to % inhibition using the following equation below:
(§2) [formula] where S is the sample luminescence, Pos is a positive control without added PI3K, Neg is the negative control without added compound. Data was then plotted as % inhibition vs compound concentration. Data fit to 4 parameter logistic equation to determine IC50 values: […]
(§3) Certain compounds provided herein were tested in PI3-Kinase Promega Assay using procedures as described above to determine IC50 values for α, β, δ and/or γ isoforms.

For the next test, the target named is T2, PI3K β (Homo sapiens, UniProt P42338).
T2 construct: purchased Millipore
The following applies: 40 nM kinase, 3 mM ATP, 500 uM diC8-PtdInsP. Here is the method: as §1, §2, §3

A further test concerns the target T3, PI3K δ (Homo sapiens, UniProt O00329).
T3 construct: purchased Millipore
The following applies: 20 nM kinase, 3 mM ATP, 500 uM diC8-PtdInsP. Here is the method:
as §1, §2, §3

For another test, the target named is T4, PI3K γ (Homo sapiens, UniProt P48736).
T4 construct: purchased Millipore
The following applies: 40 nM kinase, 3 mM ATP, 500 uM diC8-PtdInsP. Here is the method: Promega ADP-Glo Max assay kit (Cat. No. V7002) was utilized to determine IC50 values for α, β, δ and γ isoforms of human Class I PI3 kinases (Millipore). […] Reactions were incubated at room temperature for 2 hours followed by addition of 25 uL of stop solution. After a 40-minute incubation at room temperature, 50 uL of Promega detection mix was added followed by incubation for 1 hour at room temperature. Plates were then read on Envision plate reader in luminescence mode. Data was converted to % inhibition using the following equation below:
[formula] where S is the sample luminescence, Pos is a positive control without added PI3K, Neg is the negative control without added compound. Data was then plotted as % inhibition vs compound concentration.
as §3

T3 sequence (O00329 whole entry): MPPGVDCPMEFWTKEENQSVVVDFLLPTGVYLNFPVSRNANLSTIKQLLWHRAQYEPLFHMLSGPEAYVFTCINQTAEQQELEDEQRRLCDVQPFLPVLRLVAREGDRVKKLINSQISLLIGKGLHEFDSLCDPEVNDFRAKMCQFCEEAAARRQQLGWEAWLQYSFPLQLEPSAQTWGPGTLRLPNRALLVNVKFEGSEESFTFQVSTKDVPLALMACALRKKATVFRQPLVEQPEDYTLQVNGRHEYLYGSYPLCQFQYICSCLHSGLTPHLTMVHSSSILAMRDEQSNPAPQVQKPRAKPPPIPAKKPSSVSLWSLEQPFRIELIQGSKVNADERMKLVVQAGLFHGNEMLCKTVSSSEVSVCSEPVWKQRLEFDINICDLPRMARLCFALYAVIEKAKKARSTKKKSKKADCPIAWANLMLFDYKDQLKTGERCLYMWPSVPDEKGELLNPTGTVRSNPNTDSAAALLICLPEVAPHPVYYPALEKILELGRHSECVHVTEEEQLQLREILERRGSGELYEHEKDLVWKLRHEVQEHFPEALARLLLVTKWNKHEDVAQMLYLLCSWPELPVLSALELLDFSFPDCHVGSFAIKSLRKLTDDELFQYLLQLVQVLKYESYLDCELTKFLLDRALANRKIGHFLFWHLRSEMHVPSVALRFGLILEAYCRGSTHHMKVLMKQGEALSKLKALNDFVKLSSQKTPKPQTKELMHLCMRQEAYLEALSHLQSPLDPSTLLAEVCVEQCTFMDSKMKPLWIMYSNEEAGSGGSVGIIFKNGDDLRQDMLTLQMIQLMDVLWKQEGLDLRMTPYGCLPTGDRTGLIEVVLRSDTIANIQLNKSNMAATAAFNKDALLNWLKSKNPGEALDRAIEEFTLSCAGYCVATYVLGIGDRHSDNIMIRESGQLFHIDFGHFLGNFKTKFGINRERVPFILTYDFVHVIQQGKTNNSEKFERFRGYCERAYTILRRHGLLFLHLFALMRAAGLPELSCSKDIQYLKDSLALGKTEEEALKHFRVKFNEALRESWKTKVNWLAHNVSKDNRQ
T3 sequence (P27986 whole entry partner): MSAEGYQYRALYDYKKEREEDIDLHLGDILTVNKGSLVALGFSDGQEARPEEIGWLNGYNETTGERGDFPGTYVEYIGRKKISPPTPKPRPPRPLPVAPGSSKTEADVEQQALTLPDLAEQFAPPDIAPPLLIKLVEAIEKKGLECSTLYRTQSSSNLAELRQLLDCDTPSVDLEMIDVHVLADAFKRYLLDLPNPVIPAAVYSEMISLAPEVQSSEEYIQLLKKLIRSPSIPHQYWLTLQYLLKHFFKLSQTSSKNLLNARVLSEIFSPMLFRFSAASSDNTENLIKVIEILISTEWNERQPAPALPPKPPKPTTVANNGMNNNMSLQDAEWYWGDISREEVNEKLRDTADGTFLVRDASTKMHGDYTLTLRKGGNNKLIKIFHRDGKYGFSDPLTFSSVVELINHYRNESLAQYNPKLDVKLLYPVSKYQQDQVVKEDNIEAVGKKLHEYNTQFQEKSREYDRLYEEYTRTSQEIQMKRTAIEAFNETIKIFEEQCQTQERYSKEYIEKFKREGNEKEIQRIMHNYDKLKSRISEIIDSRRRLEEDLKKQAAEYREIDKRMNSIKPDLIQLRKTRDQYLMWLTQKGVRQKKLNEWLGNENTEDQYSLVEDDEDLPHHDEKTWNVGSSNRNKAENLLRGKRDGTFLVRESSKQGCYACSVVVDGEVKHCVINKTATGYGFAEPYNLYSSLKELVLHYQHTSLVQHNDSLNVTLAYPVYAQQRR
T4 sequence (P48736 whole entry): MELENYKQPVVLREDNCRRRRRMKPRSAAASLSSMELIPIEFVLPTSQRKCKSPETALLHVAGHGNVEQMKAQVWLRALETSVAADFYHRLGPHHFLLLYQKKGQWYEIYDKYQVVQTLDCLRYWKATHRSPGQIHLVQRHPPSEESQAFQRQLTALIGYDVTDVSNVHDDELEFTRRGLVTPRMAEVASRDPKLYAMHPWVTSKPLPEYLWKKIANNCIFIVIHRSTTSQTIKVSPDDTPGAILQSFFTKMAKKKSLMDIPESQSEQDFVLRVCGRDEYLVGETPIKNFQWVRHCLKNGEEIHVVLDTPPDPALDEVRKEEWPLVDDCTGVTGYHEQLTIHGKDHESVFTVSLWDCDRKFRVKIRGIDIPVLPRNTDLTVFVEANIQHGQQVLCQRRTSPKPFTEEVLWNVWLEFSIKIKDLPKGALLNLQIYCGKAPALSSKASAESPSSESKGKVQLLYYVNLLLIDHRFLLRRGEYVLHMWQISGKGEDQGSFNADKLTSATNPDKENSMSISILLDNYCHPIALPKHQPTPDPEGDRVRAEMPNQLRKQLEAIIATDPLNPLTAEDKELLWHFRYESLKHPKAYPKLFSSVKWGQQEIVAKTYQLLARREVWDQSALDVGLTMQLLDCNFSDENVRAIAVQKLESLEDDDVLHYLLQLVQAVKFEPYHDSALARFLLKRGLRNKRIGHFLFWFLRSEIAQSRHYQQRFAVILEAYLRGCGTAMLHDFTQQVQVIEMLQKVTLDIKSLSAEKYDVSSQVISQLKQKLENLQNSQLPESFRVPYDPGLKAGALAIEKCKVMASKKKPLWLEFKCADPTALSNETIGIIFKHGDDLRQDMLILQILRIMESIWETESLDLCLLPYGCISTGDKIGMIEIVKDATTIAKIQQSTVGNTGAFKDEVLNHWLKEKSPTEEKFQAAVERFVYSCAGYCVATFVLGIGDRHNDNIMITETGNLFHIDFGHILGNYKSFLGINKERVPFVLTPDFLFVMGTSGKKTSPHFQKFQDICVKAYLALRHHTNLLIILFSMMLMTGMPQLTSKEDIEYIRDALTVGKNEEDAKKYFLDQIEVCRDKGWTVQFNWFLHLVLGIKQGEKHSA
T1 sequence (P42336 whole entry): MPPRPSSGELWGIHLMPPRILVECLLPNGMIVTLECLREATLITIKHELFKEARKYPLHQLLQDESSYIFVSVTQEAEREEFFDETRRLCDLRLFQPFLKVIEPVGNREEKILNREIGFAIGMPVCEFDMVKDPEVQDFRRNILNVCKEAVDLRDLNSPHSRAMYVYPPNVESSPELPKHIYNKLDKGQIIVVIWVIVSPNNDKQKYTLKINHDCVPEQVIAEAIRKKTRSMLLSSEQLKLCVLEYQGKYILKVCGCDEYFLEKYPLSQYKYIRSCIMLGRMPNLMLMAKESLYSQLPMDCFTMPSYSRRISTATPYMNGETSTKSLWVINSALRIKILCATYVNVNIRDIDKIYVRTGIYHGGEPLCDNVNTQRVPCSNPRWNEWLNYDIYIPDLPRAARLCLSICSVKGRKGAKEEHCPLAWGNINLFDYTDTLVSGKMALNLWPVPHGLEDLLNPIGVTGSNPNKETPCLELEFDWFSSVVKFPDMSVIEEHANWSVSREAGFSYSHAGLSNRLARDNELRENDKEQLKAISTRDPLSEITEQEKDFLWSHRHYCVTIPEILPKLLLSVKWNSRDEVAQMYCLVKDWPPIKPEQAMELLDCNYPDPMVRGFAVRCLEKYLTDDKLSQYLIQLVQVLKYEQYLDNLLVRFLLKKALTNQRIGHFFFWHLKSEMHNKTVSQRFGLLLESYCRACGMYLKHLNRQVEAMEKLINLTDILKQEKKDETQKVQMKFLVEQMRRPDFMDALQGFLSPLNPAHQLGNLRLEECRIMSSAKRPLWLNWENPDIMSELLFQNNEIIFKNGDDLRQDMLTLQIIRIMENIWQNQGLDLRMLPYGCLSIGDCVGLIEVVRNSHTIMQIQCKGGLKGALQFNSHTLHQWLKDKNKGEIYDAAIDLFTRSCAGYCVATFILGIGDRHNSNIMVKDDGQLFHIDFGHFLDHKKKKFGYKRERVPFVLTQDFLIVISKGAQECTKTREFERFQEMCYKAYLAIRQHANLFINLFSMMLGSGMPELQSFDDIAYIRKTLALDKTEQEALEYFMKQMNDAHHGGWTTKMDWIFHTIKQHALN
T1 sequence (P27986 whole entry partner): as the sequence (P27986 whole entry partner) above
T2 sequence (P42338 whole entry): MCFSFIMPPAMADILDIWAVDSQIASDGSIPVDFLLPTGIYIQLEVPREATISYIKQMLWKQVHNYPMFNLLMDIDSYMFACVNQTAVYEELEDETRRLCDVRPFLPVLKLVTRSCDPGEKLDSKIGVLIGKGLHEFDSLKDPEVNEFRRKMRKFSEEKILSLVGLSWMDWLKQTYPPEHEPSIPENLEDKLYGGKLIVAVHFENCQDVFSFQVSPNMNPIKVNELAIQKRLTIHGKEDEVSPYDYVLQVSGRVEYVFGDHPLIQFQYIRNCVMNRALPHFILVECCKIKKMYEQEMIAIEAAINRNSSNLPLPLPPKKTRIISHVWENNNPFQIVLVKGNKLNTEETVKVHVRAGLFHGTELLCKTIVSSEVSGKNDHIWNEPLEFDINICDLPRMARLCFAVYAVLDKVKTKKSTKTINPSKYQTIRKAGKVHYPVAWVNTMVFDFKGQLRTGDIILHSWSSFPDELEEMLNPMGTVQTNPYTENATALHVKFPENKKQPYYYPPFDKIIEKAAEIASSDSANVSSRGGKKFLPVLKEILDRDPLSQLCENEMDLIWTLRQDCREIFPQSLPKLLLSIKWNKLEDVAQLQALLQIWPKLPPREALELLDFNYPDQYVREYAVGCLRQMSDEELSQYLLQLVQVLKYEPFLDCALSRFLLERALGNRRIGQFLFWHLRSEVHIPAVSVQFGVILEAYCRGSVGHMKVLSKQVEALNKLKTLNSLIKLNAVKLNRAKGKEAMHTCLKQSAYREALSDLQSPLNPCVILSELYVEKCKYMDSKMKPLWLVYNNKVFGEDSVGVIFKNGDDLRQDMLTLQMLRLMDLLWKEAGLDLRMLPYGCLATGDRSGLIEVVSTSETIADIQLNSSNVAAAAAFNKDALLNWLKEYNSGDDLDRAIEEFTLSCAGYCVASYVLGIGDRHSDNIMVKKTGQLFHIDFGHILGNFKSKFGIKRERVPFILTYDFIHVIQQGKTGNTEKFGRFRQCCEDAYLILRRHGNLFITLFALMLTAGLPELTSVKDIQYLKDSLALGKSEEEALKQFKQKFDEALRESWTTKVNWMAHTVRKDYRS
T2 sequence (P27986 whole entry partner): as the sequence (P27986 whole entry partner) above

In the case of `COc1ccc(-c2cnc(N)c(C(=O)N[C@@H](C)c3cc4cccc(Cl)c4c(=O)n3-c3ccccc3)n2)cc1F` [Compound 94], the IC50 on PI3K α is above 10 µM; against PI3K β it was above 10 µM; at PI3K δ it was 1 to 10 µM; against PI3K γ it was 1 to 10 µM.

Turning to `C[C@H](NC(=O)c1nc(-c2cccc(S(=O)(=O)N3CCOCC3)c2)cnc1N)c1cc2cccc(Cl)c2c(=O)n1-c1ccccc1` [Compound 95], the IC50 at PI3K α, on PI3K β, against PI3K δ and at PI3K γ was above 10 µM each time.

With `C[C@H](NC(=O)c1nc(-c2cccc(S(=O)(=O)N3CCN(C)CC3)c2)cnc1N)c1cc2cccc(Cl)c2c(=O)n1-c1ccccc1` [Compound 100], the IC50 at PI3K α, against PI3K β, at PI3K δ and at PI3K γ was 1 to 10 µM each time.

As for `COc1cccc(-c2cnc(N)c(C(=O)N[C@@H](C)c3cc4cccc(Cl)c4c(=O)n3-c3ccccc3)n2)c1` [Compound 105], the IC50 against PI3K α, against PI3K β, on PI3K δ and at PI3K γ was above 10 µM in each case.

On to `Nc1nn2cccnc2c1C(=O)N1CCC[C@H]1c1cc2cccc(Cl)c2c(=O)n1-c1ccccc1` [Compound 147], for which the IC50 against PI3K α was above 10 µM; on PI3K β, 1 to 10 µM; at PI3K δ, above 10 µM; against PI3K γ, 1 to 10 µM.

On to `Nc1nccnc1C(=O)N1CCC[C@H]1c1cc2cccc(Cl)c2c(=O)n1-c1ccccc1` [Compound 148], for which the IC50 against PI3K α was above 10 µM; at PI3K β, above 10 µM; against PI3K δ it was 1 to 10 µM; against PI3K γ, above 10 µM.

As to `C[C@H](NC(=O)c1nc(-c2cncc(NS(C)(=O)=O)c2)cnc1N)c1cc2cccc(Cl)c2c(=O)n1C1CC1` [Compound 172], the IC50 against PI3K α, on PI3K β, at PI3K δ and on PI3K γ was below 0.1 µM each time.

With `CC(C)c1ccnc2c(C(=O)N[C@@H](C)c3cc4cccc(Cl)c4c(=O)n3-c3ccccc3)c(N)nn12` [Compound 177], the concentration for half-maximal inhibition (IC50) at PI3K α, at PI3K β, on PI3K δ and against PI3K γ was above 10 µM in each case.

With `CC(=O)Nc1ncc(-c2cccc(NS(C)(=O)=O)c2)nc1C(=O)N[C@@H](C)c1cc2cccc(Cl)c2c(=O)n1C` [Compound 185], the IC50 at PI3K α, against PI3K β, against PI3K δ and against PI3K γ was above 10 µM each time.

As for `C[C@H](NC(=O)c1c(N)nn2cccnc12)c1cc2cccc(/C=C/c3ccccc3)c2c(=O)n1-c1ccccc1` [Compound 199], the IC50 against PI3K α, at PI3K β, at PI3K δ and on PI3K γ was above 10 µM throughout.

Take `COc1cc(-c2csc3cc([C@H](C)NC(=O)c4c(N)nn5cccnc45)n(-c4ccccc4)c(=O)c23)ccn1` [Compound 213]: the IC50 at PI3K α, on PI3K β, on PI3K δ and against PI3K γ was above 10 µM throughout.

Turning to `C[C@H](NC(=O)c1c(N)nn2cccnc12)c1cc2cccc(/C=N\O)c2c(=O)n1-c1ccccc1` [Compound 226], the IC50 against PI3K α was above 10 µM; at PI3K β, above 10 µM; against PI3K δ, 1 to 10 µM; against PI3K γ, 0.1 to 1 µM.

Consider `C[C@H](NC(=O)c1c(N)nn2cccnc12)c1cc2cccc(CNCC3CCCO3)c2c(=O)n1-c1ccccc1` (some centres unmarked) [Compound 229], for which the IC50 against PI3K α was above 10 µM; against PI3K β, above 10 µM; against PI3K δ it was 1 to 10 µM; on PI3K γ, 1 to 10 µM.

For `CNCc1cccc2cc([C@H](C)NC(=O)c3c(N)nn4cccnc34)n(-c3ccccc3)c(=O)c12` [Compound 230], the IC50 is above 10 µM against PI3K α, above 10 µM on PI3K β, 1 to 10 µM on PI3K δ and above 10 µM on PI3K γ.
